Experimental data taken from EP4744648A1, “LIPOPEPTIDE-CONTAINING FAT-DISSOLVING PRODUCT, AND PREPARATION METHOD THEREFOR AND USE THEREOF” (Bloomage Biotechnology Corporation Limited, priority 2023, dated 2024).

How the values were obtained:
[1] = Surface tension at serial dilutions (CMC value determination), automatic interfacial tensiometer; assay type: physicochemical
Method: A 0.1% surfactin HXRZ solution and a sodium deoxycholate solution were separately prepared using purified water, followed by serial dilution to obtain different gradient concentrations. The surface tensions at different concentrations were determined respectively via a JZ-200A automatic interfacial tensiometer. Table 1 CMC value determination results

Kunming mice [2] = assay: Efficacy and side effects on degradation of inguinal adipose tissue, subcutaneous injection once every 14 days; assay type: in vivo; settings: 1 %; for Adipocyte density (n/mm^2): day 42, M±SEM
Method: The adipocyte density was then calculated.
Table 6 Local inflammation in mice of each group

[3] = tested on: transgenic obese (ob/ob) mice; assay: Degradation of gluteal adipose tissue after injection into adipose pads of the left buttock (H-E sections, site observation); assay type: in vivo; settings: Example 4, 1 %
Method: 6-week-old transgenic obese (ob/ob) mice were used as the animal model. Different drugs were injected into the adipose pads of the left buttock. The mice were totally divided into three groups with 7-10 mice per group, as specified below. • 1) Negative control group: injected with 200 µL of sterile normal saline; • 2) 1% sodium deoxycholate group: injected with 200 µL of sterile normal saline solution containing 1% sodium deoxycholate; • 3) 0.1% surfactin HXRZ group: injected with 200 µL of sterile normal saline solution containing 0.1% surfactin HXRZ.
The day of the first administration was defined as Day 1 of the experiment. Additional administrations were performed on Day 3 and Day 5, respectively. The general condition and administration sites of the mice were observed regularly throughout the experiment. On Day 21 of the experiment, the mice were sacrificed and dissected. The adipose tissue of the left buttock was isolated, fixed immediately in adipose tissue fixative, and then embedded in paraffin. The adipose tissue was stained by hematoxylin and eosin staining for pathological examination, followed by observation and analysis under an optical microscope.
Specifically, 6-week-old transgenic obese (ob/ob) mice were used as the animal model, with one mouse per group. 200 µL each of 0.5% and 1% surfactin HXRZ normal saline solutions (test samples) were injected into the adipose pads of the left buttock, respectively. The day of the first administration was defined as Day 1 of the experiment. Additional administrations were performed on Day 3 and Day 5, respectively. The general condition and administration sites of the mice were observed regularly throughout the experiment. On Day 21 of the experiment, the mice were sacrificed and dissected. The adipose tissue of the left buttock of the mice was isolated, fixed immediately in adipose tissue fixative, and then embedded in paraffin. The adipose tissue was stained by hematoxylin and eosin staining for pathological examination, followed by observation and analysis under an optical microscope.

[4] = tested on: Mouse adipocyte cell line 3T3-F442A; assay: In vitro cytotoxicity test: relative growth rate of cells by CCK-8; assay type: cell-based; settings: 0.5 mg/mL
Kunming mice [5] = assay: Preliminary study on degradation of inguinal adipose tissue, subcutaneous injection once every 7 days; assay type: in vivo; settings: for ulceration at the administration sites: 200 µL s.c. left inguinal, after two administrations, n = 3
Method: Administration was performed once every 7 days. […] 7-9.

Female Kunming mice = assay: Animal experiment comparing surfactin-C14 and surfactin-C15: subcutaneous injection in right inguinal region, four administrations; assay type: in vivo
Text: The higher drug concentration indicated the more obvious effect.

[6] = Observation of solubility in water; assay type: physicochemical; settings: added to water; room temperature
[7] = tested on: Mouse adipocyte cell line 3T3-F442A; assay: In vitro cytotoxicity test: relative growth rate of cells by CCK-8; assay type: cell-based
Method: In accordance with GB/T 16886.5 Biological evaluation of medical devices-Part 5: In vitro cytotoxicity tests (GB/T 16886.5-2017/ISO 10993-5:2009, IDT), and the test was performed with reference to the methods specified therein. The detailed experimental procedures are as follows:
Mouse adipocyte cell line 3T3-F442A in the logarithmic growth phase was seeded into a 96-well plate at a density of 1×10^5 cells/mL, with 100 µL per well. The culture medium consisted of a basal culture medium supplemented with 10% fetal bovine serum. The seeded cells were incubated conventionally in a carbon dioxide incubator at 37°C and 5% CO2 for 24 h.
The solution was freshly prepared before use.
After routine incubation for 24 h, the old culture medium was discarded, and then 100 µL of sample solution was added to replace it in the experimental group. An equal volume of serum-free culture medium was added to the normal control group. Each concentration was set up with at least three replicate wells.
After another incubation for 24 h, the relative growth rate of cells was detected by CCK-8. The culture medium was discarded, 100 µL of CCK-8 diluted 10-fold with the serum-free medium was added to each well. The plate was incubated in a cell incubator for another 2 h. The absorbance was determined using a microplate reader at a wavelength of 450 nm. The relative growth rate (RGR) is a ratio of the absorbance of the experimental group to the absorbance of the normal control group.
The experimental procedures in Example 3 were the same as those in Example 2 except that treatment durations were 0.5 h, 4 h and 24 h. The determination results of the relative growth rates of 3T3-F442A cells treated with surfactin HXRZ and sodium deoxycholate for different durations are shown in Table 3. Table 3 Relative growth rate (%)
3T3-F442A mouse adipocytes in the logarithmic growth phase were seeded into a 96-well plate at a density of 1 × 10^5 cells/mL, with 100 µL per well. After incubation for 24 h, the culture medium was replaced with 100 µL of culture medium containing different concentrations of samples. An equal volume of serum-free culture medium was added to the blank control group, and the incubation was continued for another 24 h. The relative growth rate of cells was determined by CCK-8. The blank control was set as 100%, the relative growth rate and half inhibitory concentration of each group were calculated. The method was the same as that in Example 2.

[8] = 10 mg/mL, four administrations, H-E sections

## Sodium deoxycholate
[1]; solution concentration 0.00078125 % in purified water
  Surface tension value: 68.51 mN/m
[1]; solution concentration 0.0015625 % in purified water
  Surface tension value: 66.57 mN/m
[1]; solution concentration 0.003125 % in purified water
  Surface tension value: 65.06 mN/m
[1]; solution concentration 0.00625 % in purified water
  Surface tension value: 63.17 mN/m
[1]; solution concentration 0.0125 % in purified water
  Surface tension value: 60.50 mN/m
[1]; solution concentration 0.025 % in purified water
  Surface tension value: 57.94 mN/m
[1]; solution concentration 0.05 % in purified water
  Surface tension value: 55.40 mN/m
[1]; solution concentration 0.1 % in purified water
  Surface tension value: 53.47 mN/m
[1]; solution concentration 0.1 % in purified water, listed as sodium deoxycholate
  Surface tension value: 53 mN/m
Kunming mice [2]; 200 µL s.c. left inguinal, once every 14 days, day 42, n = 9
  Adipose tissue weight: 0.1889 ± 0.0270 g
Kunming mice [2]; 200 µL s.c.
  Adipocyte density (n/mm^2): 727.84±56.64 n/mm^2
Kunming mice [2]; 200 µL s.c., listed as sodium deoxycholate
  Adipocyte density (n/mm^2): 727.84±56.64 n/mm^2
Kunming mice [2]; 200 µL s.c., day 42, treated-side inguinal adipose weight/body weight × 100%
  Fat index (%): 0.49±0.07 %
Kunming mice [2]; Day 1, number of mice (n = 9)
  Subcutaneous nodule and induration: 0
  Ulceration: 0
Kunming mice [2]; Day 7, number of mice (n = 9)
  Subcutaneous nodule and induration: 0
  Ulceration: 2
Kunming mice [2]; Day 14, number of mice (n = 9)
  Subcutaneous nodule and induration: 2
  Ulceration: 0
Kunming mice [2]; Day 21, number of mice (n = 9)
  Subcutaneous nodule and induration: 8
  Ulceration: 0
Kunming mice [2]; Day 28, number of mice (n = 9)
  Subcutaneous nodule and induration: 5
  Ulceration: 0
Kunming mice [2]; Day 35, number of mice (n = 9)
  Subcutaneous nodule and induration: 4
  Ulceration: 0
Kunming mice [2]; Day 42, number of mice (n = 9)
  Subcutaneous nodule and induration: 4
  Ulceration: 0
Kunming mice [2]; entire administration cycle
  ulceration at the administration sites over the administration cycle: ulceration was observed at the administration sites
[3]; 200 µL in normal saline, left buttock, Days 1, 3, 5, Day 21
  degradation of adipose tissue at the administration sites (H-E sections, FIG. 5): induced the degradation of adipose tissue at the administration sites
[3]; 200 µL, 7-10 mice per group
  mice with obvious induration palpable at the administration sites: three
  mice with ulceration at the administration site: one
[4]; 4 h
  cell morphology of adipocytes (inverted microscope, FIG. 4): nearly all cells died
[4]; 24 h
  cell morphology of adipocytes (inverted microscope, FIG. 4): nearly all cells died
Kunming mice [5]; 1 %
  ulceration at the administration sites: visible ulceration was observed at the administration sites
Kunming mice [5]; 1 %, after a 7-day administration interval
  healing of ulceration: healed completely
Kunming mice [5]; 2 %
  ulceration at the administration sites: ulceration occurred at the administration sites in all mice
Kunming mice [5]; 2 %, within the subsequent 7 days
  healing of ulcers: failed to heal
Female Kunming mice; 10 mg/mL, 200 µL s.c.
  Incidence of local adverse reactions, Fourth administration: 83.33%
  Incidence of local adverse reactions, Second administration: 75.00%
  Incidence of local adverse reactions, Third administration: 66.67%
Female Kunming mice; 10 mg/mL, 200 µL s.c., percentage of mice with abnormalities at the administration site
  Incidence of local adverse reactions, First administration: 62.50%
Female Kunming mice; 10 mg/mL, four administrations
  Mean wet adipose tissue weight/body weight percentage (x±SEM, %): 0.57±0.05 %
Female Kunming mice; 10 mg/mL, four administrations once every 14 days, right inguinal
  Mean wet adipose tissue weight (x±SEM, unit: g): 0.224 ± 0.022 g
Female Kunming mice; [8]
  Mean adipocyte area (x±SEM, mm^2): 0.003751±0.000614 mm^2
  Mean adipocyte density (x±SEM, n/mm^2): 322.3211±55.3047 n/mm^2
Female Kunming mice; over all four administrations, except first administration in the HXRZ-B high-dose group
  incidence of adverse reactions: exceeded 60%
[6]
  solubility in water: poorly soluble
[7]; 0.5 mg/mL
  treatment time at which adipocytes were completely lysed: 0.5 h
[7]; 3T3-F442A adipocytes, 24 h, calculated from Table 2 curves
  half maximal inhibitory concentrations IC50: 0.2605 mg/mL
[7]; Example 2, 0.125 mg/mL, 24 h, 3T3-F442A
  Relative growth rate (%): 98.64±1.74%
[7]; Example 2, 0.25 mg/mL, 24 h, 3T3-F442A
  Relative growth rate (%): 55.58±3.66%
[7]; Example 2, 0.3 mg/mL, 24 h, 3T3-F442A
  Relative growth rate (%): 23.83±3.45%
[7]; Example 2, 0.4 mg/mL, 24 h, 3T3-F442A
  Relative growth rate (%): 10.92±0.48%
[7]; Example 2, 0.5 mg/mL, 24 h, 3T3-F442A
  Relative growth rate (%): 10.7±0.11%
[7]; Example 3, 0.3 mg/mL, 0.5 h
  Relative growth rate (%): 71.17±4.00%
[7]; Example 3, 0.3 mg/mL, 4 h
  Relative growth rate (%): 61.46±9.30%
[7]; Example 3, 0.3 mg/mL, 24 h
  Relative growth rate (%): 10.70±3.45%
[7]; Example 3, 0.4 mg/mL, 0.5 h
  Relative growth rate (%): 28.78±6.59%
[7]; Example 3, 0.4 mg/mL, 4 h
  Relative growth rate (%): 23.81±1.24%
[7]; Example 3, 0.4 mg/mL, 24 h
  Relative growth rate (%): 10.92±0.48%
[7]; Example 3, 0.5 mg/mL, 0.5 h
  Relative growth rate (%): 12.78±0.67%
[7]; Example 3, 0.5 mg/mL, 4 h
  Relative growth rate (%): 17.24±0.02%
[7]; Example 3, 0.5 mg/mL, 24 h
  Relative growth rate (%): 10.69±0.11%
